In patent publication US8501992B2, “Hydroxyphenyl sulfonamides as antiapoptotic bcl inhibitors” (Bristol-Myers Squibb Company, priority 2008, dated 2013):

How the values were obtained:
Assay type in all cases: binding
Bcl-2 = biological target: T1, Bcl-2 (Homo sapiens, UniProt P10415); assay: Bcl2/Bim fluorescence polarization assay (FPA); settings: BIM BH3 peptide 5 nM, Bcl-2 11 nM, Ki calculated from FPA data
T1 construct: without their C-terminal transmembrane domain; GST; made in house
Description: (§1) Compounds were profiled for their ability to disrupt in vitro binding interactions in fluorescence polarization assays (FPAs) using synthetic fluorochrome-labeled Bcl homology 3 (BH3) peptides derived from BIM [(FAM)-Ahx-[…]-NH2 (SEQ ID NO: 1) (GenBank Accession No. O43521)] or BAK [Ac-GQVGRQLAIIGE-LYS(FAM)-INR-NH2 (SEQ ID NO:2) (GenBank Accession No. Q16611) amino acid sequences and four bacterial recombinant proteins [Bcl-b (GenBank Accession No. Q9HD36), Bcl-2 (GenBank Accession No. P10415), Bcl-Xl (GenBank Accession No. Q07817), Mcl-1 (GenBank Accession No. Q07820)] without their C-terminal transmembrane domain. Proteins were purified from bacterial lysates using their glutathione S-transferase (GST)-tag (Bcl-b, Bcl-2, Mcl-1) or His6-tag (Bcl-Xl) and following one-step affinity chromatography procedures. Dissociation constants (Kd) for peptide binding protein were determined by fluorescence polarization in FPAs measuring BIM BH3 peptide binding Bcl-b, Mcl-1 or Bcl-2 protein or BAK BH3 peptide binding Bcl-Xl protein. The Kd values were generated by fitting the experimental data using a sigmoidal dose-response nonlinear regression model.
(§2) Compound inhibitory concentration values, IC50 (50% reduction in fluorescence polarization), were determined using fluorochrome-labeled BH3 peptides and recombinant Bcl proteins in fluorescence polarization assays (FPAs). Compounds diluted in DMSO (0.5 ul) were transferred (in duplicate) to individual wells of a 384-well plate. The fluorochrome-labeled peptide was added followed by recombinant protein addition. Each binding FPA reaction (50 ul) contained BIM BH3 peptide (5 nM) or BAK BH3 peptide (1.5 nM) and Bcl-b (40 nM), Mcl-1 (28 nM), Bcl-2 (11 nM) or Bcl-Xl. (5 nM) protein suspended in assay buffer [20 mM sodium phosphate, pH 7.4, 1 mM EDTA, 50 mM NaCl., 0.05% Pluronic F68]. Reaction mixtures were incubated at ambient temperature for 60 minutes prior to measuring polarization (mP) using an Analyst (LJL, Molecular Devices, Sunnyvale, Calif.) programmed to detect an emission wavelength of 530 nm after excitation (excitation wavelength=485 nm).
(§3) Competitive compound inhibition constants (Ki) were calculated using FPA experimental data and a mathematical equation, Ki=[I]50/([L]50/Kd+[P]0/Kd+1), where [I]50 denotes free inhibitor concentration at 50% inhibition, [L]50 is free labeled ligand concentration at 50% inhibition, [P]0 is free protein concentration at 0% inhibition, and Kd is the dissociation constant of the protein-ligand complex.

Mcl-1 = biological target: T2, Mcl-1 (Homo sapiens, UniProt Q07820); assay: Mcl-1/Bim fluorescence polarization assay (FPA); settings: BIM BH3 peptide 5 nM, Mcl-1 28 nM, Ki calculated from FPA data
T2 construct: without their C-terminal transmembrane domain; GST; made in house
Description: as §1, §2, §3

Bcl-b = biological target: T3, Bcl-b (Homo sapiens, UniProt Q9HD36); assay: Bclb/Bim fluorescence polarization assay (FPA); settings: BIM BH3 peptide 5 nM, Bcl-b 40 nM, Ki calculated from FPA data
T3 construct: without their C-terminal transmembrane domain; GST; made in house
T3 sequence (Q9HD36 1-182 limits assumed): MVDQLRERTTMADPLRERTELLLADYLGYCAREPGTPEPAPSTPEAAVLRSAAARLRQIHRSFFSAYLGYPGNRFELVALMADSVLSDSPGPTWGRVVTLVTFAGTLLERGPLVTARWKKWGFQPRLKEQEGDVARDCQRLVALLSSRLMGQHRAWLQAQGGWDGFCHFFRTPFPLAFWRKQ
Description: as §1, §2, §3

T2 sequence (Q07820 1-327 limits assumed): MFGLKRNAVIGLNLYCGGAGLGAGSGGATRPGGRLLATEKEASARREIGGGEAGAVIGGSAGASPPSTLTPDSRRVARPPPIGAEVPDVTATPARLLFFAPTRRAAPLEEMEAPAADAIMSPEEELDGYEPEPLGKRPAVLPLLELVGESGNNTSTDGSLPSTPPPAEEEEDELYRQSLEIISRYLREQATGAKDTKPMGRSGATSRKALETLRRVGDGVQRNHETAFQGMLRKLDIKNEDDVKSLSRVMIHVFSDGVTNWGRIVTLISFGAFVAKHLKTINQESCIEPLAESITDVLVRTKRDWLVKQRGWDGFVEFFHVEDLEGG
T1 sequence (P10415 1-211 limits assumed): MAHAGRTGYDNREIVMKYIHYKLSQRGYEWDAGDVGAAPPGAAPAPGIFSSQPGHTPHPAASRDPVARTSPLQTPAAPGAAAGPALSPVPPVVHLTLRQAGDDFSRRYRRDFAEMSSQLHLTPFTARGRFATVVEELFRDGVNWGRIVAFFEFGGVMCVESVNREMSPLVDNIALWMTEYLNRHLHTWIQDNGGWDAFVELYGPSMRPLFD

COc1ccc(S(N)(=O)=O)cc1C(=O)NCc1cccc(CN(Cc2ccc(-c3ccccc3)cc2)S(=O)(=O)c2cc(Cl)cc(Cl)c2O)c1 [Example 39, N-(3-((N-(biphenyl-4-ylmethyl)-3,5-dichloro-2-hydroxyphenyl-sulfonamido)methyl)benzyl)-2-methoxy-5-sulfamoylbenzamide] was tested. Which Ki (Bcl-2) did it give?
Its Ki is 153 nM.

What about the Ki (Mcl-1) of the same compound?
Its Ki is 207 nM.

What about the Ki (Bcl-b) of the same compound?
Its Ki is 289 nM.

Which Ki (Bcl-2) does the source give for Cc1ccc(S(=O)(=O)N(Cc2cc(CN(Cc3ccc(F)cc3)S(=O)(=O)c3cc(Cl)cc(Cl)c3O)cc(Oc3ccc(F)cc3)c2)CC(C)C)cc1 [Example 8, 3,5-Dichloro-N-(4-fluorobenzyl)-N-(3-(4-fluorophenoxy)-5-((N-isobutyl-4-methylphenylsulfonamido)methyl)benzyl)-2-hydroxybenzenesulfonamide] here?
Its Ki is 10 nM.

And the Ki (Mcl-1)?
The Ki was 40 nM.

What about the Ki (Bcl-b) of the same compound?
The Ki was 100 nM.

For O=C(c1cccc(CN(Cc2ccc(F)cc2)S(=O)(=O)c2cc(Cl)cc(Cl)c2O)c1)N(Cc1ccc(F)cc1)Cc1cc(Cl)cc(Cl)c1 [Example 95, 3-((3,5-Dichloro-N-(4-fluorobenzyl)-2-hydroxyphenylsulfonamido)methyl)-N-(3,5-dichlorobenzyl)-N-(4-fluorobenzyl)benzamide], which Ki (Bcl-2) is on record?
Its Ki is 120 nM.

What about the Ki (Mcl-1) of the same compound?
The Ki was 70 nM.

What about the Ki (Bcl-b) of the same compound?
The Ki was 60 nM.

With CCCCc1ccc(-c2cccc(CN(Cc3ccc(F)cc3)S(=O)(=O)c3cc(Cl)cc(Cl)c3O)c2)cc1 [Example 256, N-((4′-Butylbiphenyl-3-yl)methyl)-3,5-dichloro-N-(4-fluorobenzyl)-2-hydroxybenzenesulfonamide] as the compound, how does the Ki (Bcl-2) read?
The Ki was 130 nM.

And the Ki (Mcl-1)?
Its Ki is 2120 nM.

And the Ki (Bcl-b)?
The Ki was 140 nM.

With O=C(NCC(O)CO)c1cc(Cl)c(O)c(S(=O)(=O)N(Cc2ccc(F)cc2)Cc2cccc(-c3ccc(Cl)cc3)c2)c1 (stereo not drawn) [Example 214, 3-Chloro-5-(N-((4′-chlorobiphenyl-3-yl)methyl)-N-(4-fluorobenzyl)-sulfamoyl)-N-(2,3-dihydroxypropyl)-4-hydroxybenzamide] as the compound, how does the Ki (Bcl-2) read?
The Ki was 1800 nM.

What about the Ki (Mcl-1) of the same compound?
The Ki was 1640 nM.

And the Ki (Bcl-b)?
Its Ki is 610 nM.

With COc1c(Cl)cc(CN(CCn2ccc3ccccc32)S(=O)(=O)c2cc(C(=O)NCc3ccccc3)cc(Cl)c2O)cc1-c1ccc(Cl)cc1 [Example 222, 3-(N-(2-(1H-Indol-1-yl)ethyl)-N-((4′,5-dichloro-6-methoxybiphenyl-3-yl)methyl)sulfamoyl)-N-benzyl-5-chloro-4-hydroxybenzamide] as the compound, how does the Ki (Bcl-2) read?
The Ki was 170 nM.

And the Ki (Mcl-1)?
Its Ki is 30 nM.

And the Ki (Bcl-b)?
The Ki was 30 nM.

With CC(C)CN(Cc1cc(Cl)cc(CN(CC(C)C)S(=O)(=O)c2cc(Cl)cc(Cl)c2O)c1)S(=O)(=O)c1cccnc1 [Example 15] as the compound, how does the Ki (Bcl-2) read?
The Ki was 10 nM.

And the Ki (Mcl-1)?
Its Ki is 10 nM.

What about the Ki (Bcl-b) of the same compound?
Its Ki is 80 nM.
